In brackets after ≈: the same amount, converted by molar mass. Like-named read-outs stand apart in the source and are kept apart here. Where a SMILES comes first, the peptide text is derived from it. Bridges are numbered along the chain shown (N, C = ends). Roman numbers before positions name the chains, in order. [ ]: non-standard residue; d: D form. βAla = NCCC(=O)O
What was measured:
[1] = target: T1, EphA2 (Homo sapiens, UniProt P29317); assay: EphA2 activation (Y588 phosphorylation) in cells by monomeric YSA derivatives; type: cell-based; set-up: EphA2 is the prevalent endogenously expressed EphA receptor in these cells; endogenous in cells; host or cells: PC3 prostate cancer cells
T1 sequence (P29317 24-976): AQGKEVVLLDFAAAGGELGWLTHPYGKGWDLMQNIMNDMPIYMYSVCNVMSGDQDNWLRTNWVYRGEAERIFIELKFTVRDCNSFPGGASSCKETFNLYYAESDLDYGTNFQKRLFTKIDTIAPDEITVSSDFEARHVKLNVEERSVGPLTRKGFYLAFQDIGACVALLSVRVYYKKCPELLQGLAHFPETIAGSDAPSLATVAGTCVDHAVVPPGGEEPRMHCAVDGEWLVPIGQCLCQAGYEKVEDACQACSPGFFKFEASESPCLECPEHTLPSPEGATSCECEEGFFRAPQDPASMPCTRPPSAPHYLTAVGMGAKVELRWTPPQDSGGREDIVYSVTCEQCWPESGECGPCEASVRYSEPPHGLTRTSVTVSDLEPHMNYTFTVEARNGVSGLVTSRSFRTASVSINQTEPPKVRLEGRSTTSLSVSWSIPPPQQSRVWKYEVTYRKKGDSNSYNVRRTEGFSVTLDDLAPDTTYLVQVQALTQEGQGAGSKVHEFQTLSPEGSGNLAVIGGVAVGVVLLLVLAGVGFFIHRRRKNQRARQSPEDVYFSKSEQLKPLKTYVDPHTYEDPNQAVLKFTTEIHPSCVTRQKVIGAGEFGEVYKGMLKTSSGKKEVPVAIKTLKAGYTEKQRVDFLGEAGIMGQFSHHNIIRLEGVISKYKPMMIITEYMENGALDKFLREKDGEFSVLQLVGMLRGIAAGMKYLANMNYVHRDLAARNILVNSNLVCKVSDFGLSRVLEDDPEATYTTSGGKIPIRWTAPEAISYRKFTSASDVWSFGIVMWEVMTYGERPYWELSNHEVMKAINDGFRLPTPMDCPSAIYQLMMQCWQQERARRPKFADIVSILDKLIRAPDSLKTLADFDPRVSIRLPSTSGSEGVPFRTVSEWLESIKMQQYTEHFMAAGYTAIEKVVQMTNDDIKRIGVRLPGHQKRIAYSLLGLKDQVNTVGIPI
Excerpt: However, as expected given their much higher potency, these two peptides are active at nanomolar concentrations. The C-terminal biotin promotes the agonistic activity of YSA derivative peptides. […] This is confirmed with the crystal structures. Thus, peptides with 1 to 7 residues between Prol 0, which is conserved in all YSA derivatives of Table 2, and the Lys-biotin residue, can all efficiently activate EphA2. […] Non-amidated β[…] has the ability to activate EphA2 in cells, even though the concentrations needed are about 10-fold higher than for the biotinylated peptide and the maximal […] phosphorylation induced by saturating peptide concentrations is about 40% lower. The C-terminally amidated version of the peptide loses the ability to activate EphA2, consistent with a role of the C-terminal negative charge for EphA2 activation even in the absence of biotin.

[2] = target: T2, EphA2 LBD (Homo sapiens, UniProt P29317); details: previous studies, cited from earlier work
T2 construct: made in house; host or cells: E. coli Origami 2(DE3)
T2 sequence (P29317 28-200): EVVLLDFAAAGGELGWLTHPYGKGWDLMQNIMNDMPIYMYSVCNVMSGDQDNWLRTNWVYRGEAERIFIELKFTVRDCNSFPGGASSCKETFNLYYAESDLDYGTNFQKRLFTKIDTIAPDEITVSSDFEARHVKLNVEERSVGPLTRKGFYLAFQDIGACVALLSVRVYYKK

[3] = target: T1, EphA2; assay: EphA2 autophosphorylation on tyrosine 588 in PC3 cells (immunoblot dose-response); type: cell-based; set-up: EphA2 is the prevalent endogenously expressed EphA receptor in these cells; endogenous in cells; host or cells: PC3 prostate cancer cells; details: for Etop pY588: Table 3, 15 min, saturating ligand, pY588/EphA2 normalized to ephrinA1-Fc
Description: (§1) (FIG. 2A) Dose-response curves for EphA2 autophosphorylation on tyrosine 588 (pY588; purple) and for downstream inhibition of AKT phosphorylation (magenta). PC3 cells were treated for 15 min with different concentrations of the indicated peptides. […] The graphs show quantifications from multiple blots (averages ±SE; the number of experiments used to generate each curve is shown in Table 3). […] (FIG. 2B) Examples of immunoblots of lysates from PC3 cells treated with the indicated concentrations of representative ligands. […] A white vertical line indicates removal of irrelevant lanes. […] The bars show averages ±SE, and the individual measurements are shown as black dots. […] Plots of Etop versus EC50 for pY588 in FIG. 2D and for pAKT inh in FIG. 2E. Averages ±SE are shown for the peptides and ephrinA1.
To examine the agonistic properties of the different dimeric peptide ligands, EphA2 autophosphorylation on tyrosine 588 (Y588) was measured, which is indicative of receptor activation and mediates binding of SH2 domain-containing proteins that link EphA2 to various downstream signaling pathways (FIG. 7). For these experiments, PC3 prostate cancer cells were stimulated with the dimeric peptides because EphA2 is the prevalent endogenously expressed EphA receptor in these cells, allowing comparisons with ephrins.

[4] = Peptide solubility in PBS/H2O/DMSO; type: physicochemical
Description: Peptide identity and purity are documented by mass spectrometry and high-performance liquid chromatography (HPLC). The peptide solubility values are determined. Concentrated peptide stocks are prepared in DMSO or H2O and stored frozen at −80° C.

[5] = target: T1, EphA2; assay: Bias factor βlig (pY588 versus pAKT inhibition, PC3 cells, reference ephrinA1-Fc); type: cell-based; set-up: EphA2 is the prevalent endogenously expressed EphA receptor in these cells; endogenous in cells; host or cells: PC3 prostate cancer cells; details: for βu (bias factor βlig): Table 3, reference ligand ephrinA1-Fc (βlig=0)
Description: FIG. 6 illustrates an example where Ligands can bias EphA2 signaling responses. The bias factor βlig was calculated for the indicated ligands using ephrinA1-Fc as the reference ligand. Statistical significance for the comparison of the different ligands with the reference ligand ephrinA1-Fc (βlig=0) was determined by one sample t test; *, P<0.05; **, P<0.01; ***, P<0.001; ****, P<0.0001.
FIG. 14A-14E illustrates an example where distinct factors are responsible for EphA2 biased signaling induced by different ligands. (FIG. 14A) Etop values for EphA2 Y588 phosphorylation, as in FIG. 2C. (FIG. 14B) Etop values for inhibition of AKT phosphorylation. (FIG. 14C) Graph of the ratios of the Etop values for EphA2 Y588 phosphorylation and inhibition of AKT phosphorylation, which are used in the βlig calculation. (FIG. 14D) Graph of the ratios of the EC50 values for EphA2 Y588 phosphorylation and inhibition of AKT phosphorylation, which are used in the βlig calculation. (FIG. 14E) Equation used to calculate the bias factor βlig for each ligand. The terms of the equation are rearranged, compared to equation (1) in the Materials and Methods, to better conform to the graphs in FIG. 14A-14D. **, P<0.01; ***, P<0.001; ****, P<0.0001; ns, not significant for the comparison with ephrinA1-Fc by one-way ANOVA and Dunnett's posthoc test.
The possibility of EphA2 biased signaling by analyzing the dose-response curves obtained with endogenous EphA2 in PC3 cells (FIG. 2A) was explored using approaches developed for GPCRs. This involves using EphA2 Y588 phosphorylation and AKT phosphorylation quantified as a function of ligand concentration to determine and compare the potency (EC50) and efficacy (Etop) for the two responses induced by different ligands. Remarkably, large differences among the ligands in the Etop values for Y588 phosphorylation (FIGS. 2C, 2D and 14A), but not in the Etop values for AKT inhibition (FIGS. 2E and 14B), were observed. In terms of relative efficacies for pY588 and pAKT inhibition, the C-terminally linked dimers and monomeric ligands behave differently from ephrinA1-Fc, while the N-terminally linked dimers and the head-to-tail dimer (8) are similar to ephrinA1-Fc (FIG. 14C). […] Thus, the type of linkage affects EphA2 signaling properties induced by the dimeric peptides.
The determined EC50 and Etop values allowed us to calculate the bias factor βlig for the two different responses induced by the various ligands relative to ephrinA1-Fc as the reference ligand (FIG. 14E). […] Remarkably, the bias originates from different mechanisms that depend on the class of ligands, with the N-terminally linked and head-to-tail dimers modulating relative potencies and the C-terminally-linked dimers and monomers modulating relative efficacies.

[6] = target: T3, EphA2 extracellular domain fused to Fc (EphA2-Fc) (Homo sapiens, UniProt P29317); assay: ELISA: inhibition of ephrinA5-AP binding to immobilized EphA2-Fc; details: inhibition of ephrin-A5 binding to EphA2; number of experiments in parentheses; read-out: Inc50 (nM) by ELISA
T3 construct: immobilized EphA2 extracellular domain fused to the Fc portion of an antibody (EphA2-Fc)
T3 sequence (P29317 24-537 limits assumed): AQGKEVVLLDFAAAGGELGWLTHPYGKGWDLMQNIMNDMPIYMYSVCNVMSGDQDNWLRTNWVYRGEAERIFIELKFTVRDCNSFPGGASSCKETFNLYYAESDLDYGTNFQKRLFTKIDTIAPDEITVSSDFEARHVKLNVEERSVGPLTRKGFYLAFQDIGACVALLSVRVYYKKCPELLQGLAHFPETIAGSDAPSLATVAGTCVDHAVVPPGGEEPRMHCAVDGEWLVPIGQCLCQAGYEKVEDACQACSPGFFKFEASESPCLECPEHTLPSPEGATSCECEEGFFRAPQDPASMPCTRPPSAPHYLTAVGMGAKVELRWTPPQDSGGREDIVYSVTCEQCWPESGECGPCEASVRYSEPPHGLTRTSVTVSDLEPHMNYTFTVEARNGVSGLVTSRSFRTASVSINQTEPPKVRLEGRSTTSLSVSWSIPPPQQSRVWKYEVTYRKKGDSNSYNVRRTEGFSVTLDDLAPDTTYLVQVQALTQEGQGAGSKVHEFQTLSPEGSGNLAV
Excerpt: FIG. 1A-1C illustrates an example of Potency and selectivity of EphA2-targeting dimeric peptides. (FIG. 1A) ELISAs comparing the ability of the peptides to inhibit binding of ephrin-A5 fused to alkaline phosphatase (ephrinA5-AP) to the immobilized EphA2 extracellular domain fused to the Fc portion of an antibody (EphA2-Fc). The graphs show averages ±SD from triplicate measurements from a representative experiment. IC50 values calculated from the fitted curves in each experiment are shown. Averages of IC50 values obtained from multiple experiments are shown in panel FIG. 1B and Table 3. The 10 nM peptide concentration is outlined in red. (FIG. 1B) Plot of the average IC50 values (listed in Table 3) for different ligands. […] (FIG. 1C) EphrinA5-AP binding to EphA receptors and ephrinB2-AP binding to EphB receptors in the presence of dimeric peptides representing each of the three configurations. Values are normalized to ephrin binding without peptide. The graphs show averages and SDs from triplicate measurements (with each measurement shown as a dot).

[7] = system: AKT; assay: Inhibition of AKT phosphorylation on S473 in PC3 cells; type: cell-based; details: for EC50 / Etop pAKT inhlb: Table 3; for EC50: PC3 cells treated for 15 min, read-out: ECsa pAKT inhlb.; for Etop pAKT inhlb: 15 min, 1-pAKT/AKT normalized to cells not treated with ligand
Description: as §1

[8] = target: T2, EphA2 LBD; assay: Isothermal titration calorimetry (ITC) with soluble EphA2 LBD; type: binding
Description: (FIG. 10A-10E) The EphA2 LBD was titrated at 200-250 μM into 10-12.5 μM of the indicated peptide.
For ITC, all peptides are dissolved in DMSO and both the EphA2 LBD and the peptides are diluted to obtain a final buffer containing 9.5 mM HEPES, pH 7.9, 95 mM NaCl, and 5% DMSO. The experiments are carried out at 296 K (23° C.) using an ITC200 calorimeter (Microcal). Two-microliter aliquots of a peptide solution are injected into the cell containing 205 μL EphA2 LBD. 200-400 μM peptides are titrated into 20-40 μM EphA2 LBD. Experimental data are analyzed using the Origin software package (Microcal). The integrated values for the reaction heats are normalized to the amount of injected peptide after blank subtraction.

[9] = DMSO, Table 4, third of PBS/H20/DMSO, read-out: Solubility in DMSO
[10] = DMSO, third of PBS/H2O/DMSO, read-out: Solubility in DMSO
[11] = PBS, Table 4, first of PBS/H20/DMSO, read-out: Solubility in PBS
[12] = PBS, first of PBS/H2O/DMSO, read-out: Solubility in PBS
[13] = water, Table 4, second of PBS/H20/DMSO, read-out: Solubility in H20
[14] = water, second of PBS/H2O/DMSO, read-out: Solubility in H2O

SMILES	Etop pY588 [3]	solubility [4, 9] [µg/mL]	solubility [4, 10] [µg/mL]	solubility [4, 11] [µg/mL]	solubility [4, 12] [µg/mL]	solubility [4, 13] [µg/mL]	solubility [4, 14] [µg/mL]	βu (bias factor βlig) [5]	IC50 [6] [nM]	EC50 [7] [nM]	Etop pAKT inhlb ([7]; PC3 cells)	further results
CC(C)C[C@H](NC(=O)[C@H](Cc1c[nH]c2ccccc12)NC(=O)CCN)C(=O)N[C@@H](C)C(=O)N[C@@H](Cc1ccc(O)cc1)C(=O)N1CCC[C@H]1C(=O)N[C@@H](CC(=O)O)C(=O)N[C@@H](CO)C(=O)N[C@H](C(=O)N1CCC[C@H]1C(=O)N[C@@H](Cc1ccc(O)cc1)C(=O)N[C@@H](CCCNC(=N)N)C(=O)N1CCC[C@H]1C(=O)N[C@@H](CCCCN)C(=O)O)C(C)C [βA-WLA-YRPK]	–	–	–	–	–	–	–	–	–	–	–	maximal Y588 phosphorylation at saturating peptide concentrations, lower than the biotinylated peptide [1]: about 40%; concentrations needed to activate EphA2 in cells relative to the biotinylated peptide ([1]; higher than for βA-WLA-YRPK-bio): about 10 fold; improvement of binding affinity compared to monomeric YSA-GSGSK-bio [2]: 50 fold; Kd ([2]; read-out: binding affinity for the EphA2 LBD measured by ITC): ~200 nM
CC(C)C[C@H](NC(=O)[C@H](Cc1c[nH]c2ccccc12)NC(=O)[C@H](C)NC(=O)CNC(=O)[C@@H](N)CSSC[C@H](N)C(=O)NCC(=O)N[C@@H](C)C(=O)N[C@@H](Cc1c[nH]c2ccccc12)C(=O)N[C@@H](CC(C)C)C(=O)N[C@@H](C)C(=O)N[C@@H](Cc1ccc(O)cc1)C(=O)N1CCC[C@H]1C(=O)N[C@@H](CC(=O)O)C(=O)N[C@@H](CO)C(=O)N[C@H](C(=O)N1CCC[C@H]1C(=O)N[C@@H](Cc1ccc(O)cc1)C(=O)N[C@@H](CCCNC(=N)N)C(=O)N1CCC[C@H]1C(=O)N[C@@H](CCCCN)C(N)=O)C(C)C)C(=O)N[C@@H](C)C(=O)N[C@@H](Cc1ccc(O)cc1)C(=O)N1CCC[C@H]1C(=O)N[C@@H](CC(=O)O)C(=O)N[C@@H](CO)C(=O)N[C@H](C(=O)N1CCC[C@H]1C(=O)N[C@@H](Cc1ccc(O)cc1)C(=O)N[C@@H](CCCNC(=N)N)C(=O)N1CCC[C@H]1C(=O)N[C@@H](CCCCN)C(N)=O)C(C)C [compound 6, CGA-WLA-YRPKam dimer (N-ter)]	0.98 ± 0.08	10000 (≈ 2750 µM)	10000 (≈ 2750 µM)	< 100	< 100	5000 (≈ 1370 µM)	5000 (≈ 1370 µM)	0.51 ± 0.13	0.4 ± 0.1	0.08 ± 0.02	0.97 ± 0.03	Emax PY588 ([3]; ephrinA1Fc = 1.00): 0.80 ± 0.01; EC50 ([3]; read-out: EC50 PY588): 0.12 ± 0.01 nM; Blig ([5]; bias factor, reference ligand ephrinA1Fc): 0.36 ± 0.09; IC50 ([7]; PC3 cells): 0.043 ± 0.007 nM
CC(C)C[C@H](NC(=O)[C@H](Cc1c[nH]c2ccccc12)NC(=O)CCN)C(=O)N[C@@H](C)C(=O)N[C@@H](Cc1ccc(O)cc1)C(=O)N1CCC[C@H]1C(=O)N[C@@H](CC(=O)O)C(=O)N[C@@H](CO)C(=O)N[C@H](C(=O)N1CCC[C@H]1C(=O)N[C@@H](Cc1ccc(O)cc1)C(=O)NCC(=O)N[C@@H](CO)C(=O)NCC(=O)N[C@@H](CSSC[C@H](NC(=O)CNC(=O)[C@H](CO)NC(=O)CNC(=O)[C@H](Cc1ccc(O)cc1)NC(=O)[C@@H]1CCCN1C(=O)[C@@H](NC(=O)[C@H](CO)NC(=O)[C@H](CC(=O)O)NC(=O)[C@@H]1CCCN1C(=O)[C@H](Cc1ccc(O)cc1)NC(=O)[C@H](C)NC(=O)[C@H](CC(C)C)NC(=O)[C@H](Cc1c[nH]c2ccccc12)NC(=O)CCN)C(C)C)C(=O)O)C(=O)O)C(C)C [compound 1, βA-WLA-YGSGC dimer (C-ter)] (I: H-[βAla]WLAYPDSVPYGSGC-OH / II: H-[βAla]WLAYPDSVPYGSGC-OH; disulfide I:15-II:15; N-terminus and C-terminus assumed)	0.49 ± 0.06	5000 (≈ 1580 µM)	5000 (≈ 1580 µM)	< 100	< 100	< 100	< 100	0.506 ± 0.12	71 ± 26	39 ± 8	0.90 ± 0.04	Kd [8]: 2900 nM; N (binding stoichiometry by ITC) ([8]; Table 3): N = 1.7 ± 0.2; -TΔS ([8]; Table 6): 16.30 ± 11 kcal/mol; N ([8]; Table 6, binding stoichiometry): 1.7 ± 0.2; ΔG ([8]; Table 6, change in Gibbs energy): -7.55 ± 0.27 kcal/mol; ΔH ([8]; Table 6, change in enthalpy): -23.85 ± 11 kcal/mol

Reference: patent US20230391826A1, “COMPOSITIONS AND METHODS FOR TREATING DISEASES” (Sanford Burnham Prebys Medical Discovery Institute, priority 2020, published 2023)
